Results published in patent publication US4988691A (priority 1989, dated 1991).
“Also recorded” adds a separate entry of the source. Where a name gives a salt, the structure may show the parent alone. Read-outs that look alike come from different tables or passages of the source.

Legend:
[1] = system: reperfusion induced arrythmias in rat; experiment: inhibition of reperfusion induced arrythmias in rat; type: in vivo; settings: for % VF / % dead: 10 treated rats; for incidence dead / incidence VF: number of 10 treated rats
[2] = system: Ca^++ receptors; experiment: displacement of 3H-nitrendipine from Ca++ receptors, rat brain membranes; type: binding; settings: 3H-nitrendipine 1nM
[3] = system: norepinephrine induced arrythmias in rat; experiment: inhibition of norepinephrine induced arrythmias in rat; type: in vivo; settings: for ED50: Rattus norvegicus, 50% reduction of arrythmia duration
Description: Male rats, weighing 300-400 g, narcotized with urethan (1.5 g/kg, i.p.) were used; one little probe was implanted into the jugular vein and another into the femoral vein for administering norepinephrine and the test substance respectively. The EGC was recorded in II derivation and from it the instantaneous heart rate was derived. Furthermore, the EGC wave was monitored on oscilloscope and made audible by mean of a loudspeaker. Norepinephrine (75 μg/kg/min. for 15 seconds, 7-8 μg/animal) was administered by means of a Braun perfusion apparatus. The dose of administered norepinephrine was established in preliminary tests so as to cause an arrythmia of a duration equal to or higher than 10 seconds. The arising time of the heart arrythmia starting from the beginning of the norepinephrine perfusion and the duration of the arrythmic phase were recorded. Tests of arrythmia duration for each animal were performed; thereafter the compounds of formula I and the compound R were administered intravenously or per os 2 minutes or 1 hour respectively before a fourth norepinephrine infusion. The activity of test compounds was evaluated as increasing percentage in the time of the arising of arrythmia as well as of the inhibition (duration of the arrythmic phase). For each dose at least 5 tests were performed. In table 9 we report as an example the ED50 values defined as 50% reduction of the duration of arrythmias after the administration of both compound No. 8 and compound R either intravenously (i.v.) or per os (p.o.).

[4] = system: guinea pig back; experiment: local anaesthetic activity in the test of the guinea pig back in vivo (intracutaneous infiltration); settings: for ED50 (C.L. 95%), 5 min. / ED50 (C.L. 95%), 15 min. / ED50 (C.L. 95%), 30 min.: guinea pig back, cutaneous anaesthesia, 0.25 ml; for ED50 (C.L. 95%), 5 min.: 5 min. after administration; for ED50 (C.L. 95%), 15 min.: 15 min. after administration; for ED50 (C.L. 95%), 30 min.: 30 min. after administration
Description: (b) Evaluation of the local anaesthetic activity in the test of the guinea pig back in vivo in comparison with lidocaine.
The local anaesthetic activity was evaluated by the method of intracutaneous infiltration in the guinea pig back as described by Bulbring E. and Wajda I. [(J. Pharmacol. Exp. Ther. 85, 78, (1945)].
Female guinea pigs weighin 400-500 g were treated intracutaneously in 4 points of their back.
At 5 minutes intervals, it was determined the reactivity of the animal to pain in each area by considering the number of responses to 6 pain stimulations.
Compounds of formula I, compound R and lidocaine, dissolved at different concentration in physiological solution adjusting the pH at 7 by addition of NaHCO3 were injected under the skin at the constant volume of 0.25 ml.
The distribution of the treatments in the 4 areas of the back was carried out according to the scheme of the Latin square. Experiments were carried out in blind.
As an example, the ED50 values for compound No. 8, compound R and lidocaine determined at 5, 15 and 30 minutes after the administration are reported in table 4.

[5] = target: T1, contracturing effect of histamine (Cavia porcellus, UniProt P31389); experiment: antihistaminic activity in vitro (contracturing effect of histamine on isolated guinea pig small intestine); parameters: species or system Guinea pigs
T1 construct: Segments measuring 5-6 cm were drawn form the end portion of the small intestine; from tissue; host or cells: guinea pig terminal small intestine (ileum)

[6] = system: 5-HT1 receptors; experiment: affinity for 5-HT1 receptors (3H serotonin binding), rat cortex membranes; settings: 3H-serotonin 5 nM; rat frontal cortex membranes
[7] = target: 5-HT2 receptors (Rattus norvegicus, UniProt P14842); experiment: affinity for 5-HT2 receptors (3H-spiroperidol binding), rat cortex membranes; settings: rat frontal cortex membranes
[8] = system: receptors for benzodiazepins; experiment: displacement of 3H-flunitrazepam from benzodiazepine receptors, rat cerebral cortex membranes; type: binding; settings: 3H-flunitrazepam 1nM
[9] = target: T2, contracturing effect of acetylcholine (Cavia porcellus, UniProt H0W1Z3); experiment: anticholinergic activity in vitro (contracturing effect of acetylcholine on isolated guinea pig small intestine); parameters: species or system Guinea pigs
T2 construct: Segments measuring 5-6 cm were drawn form the end portion of the small intestine; from tissue; host or cells: guinea pig terminal small intestine (ileum)

[10] = target: T3, 5-HT3 receptors (Oryctolagus cuniculus, UniProt A0A5F9C9J3); experiment: anti-5-HT3 activity in vitro on the isolated vagus nerve of rabbit
T3 construct: from tissue; host or cells: isolated rabbit vagus nerve
T3 sequence (A0A5F9C9J3 1-494): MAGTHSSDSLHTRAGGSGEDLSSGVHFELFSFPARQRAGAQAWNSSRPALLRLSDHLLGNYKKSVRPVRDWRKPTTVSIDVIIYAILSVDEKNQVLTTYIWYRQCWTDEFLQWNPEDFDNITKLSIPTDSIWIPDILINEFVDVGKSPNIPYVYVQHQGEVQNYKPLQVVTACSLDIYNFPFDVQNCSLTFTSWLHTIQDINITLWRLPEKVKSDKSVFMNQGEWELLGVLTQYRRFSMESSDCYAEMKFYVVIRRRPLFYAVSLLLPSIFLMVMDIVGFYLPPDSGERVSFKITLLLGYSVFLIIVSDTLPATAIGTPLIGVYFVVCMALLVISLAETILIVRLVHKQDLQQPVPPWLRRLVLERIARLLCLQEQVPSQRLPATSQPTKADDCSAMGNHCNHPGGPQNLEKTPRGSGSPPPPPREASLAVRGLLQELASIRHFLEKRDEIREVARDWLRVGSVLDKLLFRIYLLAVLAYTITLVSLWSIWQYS
Description: (b) Evaluation of the anti-5-HT3 activity in vitro on the vagus nerve of rabbit. Male albino New Zeland rabbits weighing about 3 kg were sacrified by an air injection in the edge auriculaers vein. The two vagus nerves, drawn as soon as possible, were placed in a bath of Locke solution having the following composition: 154 mM NaCl; 5.5 mM KCl; 2.2 mM CaCl2; 5 mM glucose; 8 mM TRIS, the pH being adjusted at 7.6 by addition of HCl. Nerves were stripped of their epineurium and transferred into a device described by Kosterlitz H. W. et al., [J. Physiol., 183, IP-3P, (1966)] consisting of four compartments separated by means of 3 elastic membranes having a little hole through which the nerve passes. The glucose concentration perfusing a portion of the nerve was 315 mM. The overmaximal electric stimulation by a single shock at 10 seconds intervals elicited a potential visualized on a storage oscilloscope. In the potential the complexes due to the excitation of fibers A, B and C were distinguished. A serotonin solution applied to the nerve causes the dose-dependent fall of the potential for fibers C only. The non variation of the A-B complex when applying serotonin and the test compounds of formula I indicates on one hand the specific action of the substances for receptors relating to fibers C only (5-HT3 receptors) and on the other hand the absence of local-anaesthetic activity. Tests were performed at room temperature (24°-25° C.). The optimum maximum reduction of the potential of fibers C by serotonin resulted to be 44%. This reduction was adopted as maximum effect (100%). For each nerve a dose-response curve was constructed with cumulative doses of serotonin. After having washed serotonin and recovered the initial potential, the nerve was balanced with a fixed concentration of the compound of formula I for 60 minutes and successively the dose-response curve to serotonin was repeated, the compound of formula I being always present in the same concentration. After having applied a serotonin concentration sufficient to produce the highest effect, the preparation was washed and thereafter it was balanced again for 60 minutes with a solution of the same compound of formula I having a higher concentration. The procedure was then repeated. For each dose of the compound of formula I the test was repeated more than 5 times. The negative […] logarithm of the molar concentration of the compound of formula I which gives a 50% reduction of the effect of the agonist substance (pA2) was calculated. In table 7, the pA2 values of some compounds of formula I are reported.

[11] = system: rat sciatic nerve; experiment: local anaesthetic activity on sciatic nerve preparation in vitro; settings: for IC50: read-out: ED50 (C.L. 95%)
[12] = target: T4, 5-HT3 receptors (Rattus norvegicus, UniProt P35563); experiment: anti-5-HT3 activity in vivo, inhibition of the Bezold-Jarisch effect; settings: intravenous, read-out: ED50 to the antagonism of the heart rate fall (Bezold-Jarisch effect)
T4 construct: Male albino rats weighing 300-400 g anaesthetized with urethan; from tissue; host or cells: whole anaesthetized rat (endogenous receptor on cardiac vagal afferents)
T4 sequence (P35563 24-483): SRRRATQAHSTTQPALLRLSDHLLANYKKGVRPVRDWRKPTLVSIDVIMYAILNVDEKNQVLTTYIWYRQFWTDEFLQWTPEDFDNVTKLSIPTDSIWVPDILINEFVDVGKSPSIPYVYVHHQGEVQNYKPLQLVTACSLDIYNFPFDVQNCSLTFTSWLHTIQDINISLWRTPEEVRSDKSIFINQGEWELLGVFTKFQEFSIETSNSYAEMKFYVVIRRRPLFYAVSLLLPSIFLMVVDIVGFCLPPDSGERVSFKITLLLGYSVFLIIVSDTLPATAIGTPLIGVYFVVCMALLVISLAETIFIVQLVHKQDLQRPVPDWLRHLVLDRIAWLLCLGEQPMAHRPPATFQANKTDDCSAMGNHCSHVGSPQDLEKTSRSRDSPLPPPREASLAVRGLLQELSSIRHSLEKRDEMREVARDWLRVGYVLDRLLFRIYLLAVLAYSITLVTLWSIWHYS
Excerpt: (a) Evaluation of the anti-5-HT3 activity in vivo by the method of the inhibition of the Bezold-Jarisch effect. The followed method was described by Fozard J. R. et al. [Nature, 316, 126-131, (1985)]. Male albino rats weighing 300-400 g anaesthetized with urethan (1.25-1.5 g/kg i.p.) were used. A tracheal cannula to allow respiration, one little catheter implanted into the jugular vein for administering serotonin and another into the right femoral vein for the intravenous administration of the compounds of formula I and of compound R were used. The bolus injection into the jugular vein of a serotonin solution caused an abrupt reduction of the heart rate quantified as 100% of the effect. The evaluation of the anti-5-HT3 activity was performed by calculating ED50 values (μg/kg) to the antagonism of the heart rate fall.

[13] = 3 mg/kg per os, *** significance < 0.001
[14] = iv, 2 min, i.v., 2 minutes before norepinephrine, read-out: ED50 i.v.
[15] = po, 1 hour before norepinephrine, read-out: ED50 p.o.

T1 sequence (P31389 whole entry): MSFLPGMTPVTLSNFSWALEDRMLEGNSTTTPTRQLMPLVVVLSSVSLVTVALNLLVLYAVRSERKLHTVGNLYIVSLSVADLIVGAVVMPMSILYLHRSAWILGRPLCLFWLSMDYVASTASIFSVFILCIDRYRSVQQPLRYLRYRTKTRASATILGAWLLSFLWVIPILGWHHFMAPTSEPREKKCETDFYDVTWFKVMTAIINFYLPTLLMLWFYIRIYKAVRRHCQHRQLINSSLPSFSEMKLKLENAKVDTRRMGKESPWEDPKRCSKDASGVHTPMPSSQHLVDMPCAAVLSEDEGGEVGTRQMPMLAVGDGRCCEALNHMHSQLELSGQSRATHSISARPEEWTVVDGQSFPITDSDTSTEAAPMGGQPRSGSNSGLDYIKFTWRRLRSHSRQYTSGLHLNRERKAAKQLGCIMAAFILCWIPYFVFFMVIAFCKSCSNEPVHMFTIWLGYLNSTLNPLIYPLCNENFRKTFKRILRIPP
T2 sequence (H0W1Z3 1-590): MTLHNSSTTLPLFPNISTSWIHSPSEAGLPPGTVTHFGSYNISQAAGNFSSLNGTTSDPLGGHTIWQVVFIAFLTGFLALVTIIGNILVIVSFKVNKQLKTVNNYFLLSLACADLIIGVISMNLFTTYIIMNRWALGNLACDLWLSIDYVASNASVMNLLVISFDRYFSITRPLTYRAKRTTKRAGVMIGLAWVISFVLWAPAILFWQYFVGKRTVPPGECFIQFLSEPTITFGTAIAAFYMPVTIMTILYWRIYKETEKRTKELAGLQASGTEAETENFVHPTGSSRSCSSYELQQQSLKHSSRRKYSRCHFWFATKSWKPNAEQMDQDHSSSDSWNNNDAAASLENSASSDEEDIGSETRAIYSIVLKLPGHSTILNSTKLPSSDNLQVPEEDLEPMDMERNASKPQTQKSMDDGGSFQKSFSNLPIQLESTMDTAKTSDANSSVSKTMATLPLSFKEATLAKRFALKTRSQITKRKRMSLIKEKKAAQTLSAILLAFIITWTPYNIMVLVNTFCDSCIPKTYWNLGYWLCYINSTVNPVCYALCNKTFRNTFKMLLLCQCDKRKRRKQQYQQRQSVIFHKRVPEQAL
Sequence of 5-HT2 receptors (P14842 whole entry): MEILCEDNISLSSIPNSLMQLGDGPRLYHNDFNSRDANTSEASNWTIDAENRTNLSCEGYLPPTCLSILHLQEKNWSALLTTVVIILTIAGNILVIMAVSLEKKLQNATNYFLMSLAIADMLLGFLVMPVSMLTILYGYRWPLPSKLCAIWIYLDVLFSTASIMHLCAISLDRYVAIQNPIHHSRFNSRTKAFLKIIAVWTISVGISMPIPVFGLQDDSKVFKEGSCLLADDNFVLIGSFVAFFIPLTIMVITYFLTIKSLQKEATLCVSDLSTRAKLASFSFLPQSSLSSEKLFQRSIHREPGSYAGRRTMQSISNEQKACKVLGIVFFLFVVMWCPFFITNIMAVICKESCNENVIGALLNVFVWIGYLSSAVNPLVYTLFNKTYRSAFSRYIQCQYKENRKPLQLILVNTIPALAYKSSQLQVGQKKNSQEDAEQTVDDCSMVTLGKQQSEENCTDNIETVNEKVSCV

Compound | % VF ([1]; 3 mg/kg per os) | % dead ([1]; 3 mg/kg per os) | incidence dead ([1]; 3 mg/kg per os) | incidence VF [1, 13] | Displacement activity at receptors of Ca++ [2] | ED50 [3, 14] | ED50 [3, 15] | ED50 (C.L. 95%), 5 min. [4] | ED50 (C.L. 95%), 15 min. [4] | ED50 (C.L. 95%), 30 min. [4] | Affinity (IC50) to 5-HT1 receptors [6] | Displacement activity at benzodiazepine receptors [8] | Kb [9] | further results
Cc1cc(C(=O)O[C@H]2C[C@H]3CC[C@@H](C2)N3C)no1 [Compound 8, 5-methylisoxazole-3-carboxylic acid 3-(endo-8-methyl-8-azabicyclo[3,2,1]octyl) ester hydrochloride] | 0% | 0% | 0 | 0 | inactive | 0.125 mg/kg | 0.35 mg/kg | 28.4 (25.5-31.8) mM | 32.8 (30.5-35.2) mM | 41.2 (38.8-43.7) mM | inactive | inactive | 6.31 µM | % VF ([1]; 1 mg/kg per os): 20%; % dead ([1]; 1 mg/kg per os): 10%; incidence dead ([1]; 1 mg/kg per os): 1; incidence VF ([1]; 1 mg/kg per os, ** significance < 0.02): 2; antiarrythmic activity, reperfusion induced arrythmias (in words) ([1]; per os): active in the test of reperfusion-induced arrythmias; activity in norepinephrine-induced arrythmia (in words) ([3]; intravenously or per os): much more active than the compound R; local anaesthetic activity, guinea pig back (in words) ([4]; guinea pig, in vivo): undoubtedly less active as local anaesthetic than compound R and lidocaine; Kb ([5]; vs histamine, guinea pig small intestine, 37° C., test compounds 10^-5 M, read-out: Antihistaminic activity (pA2) (converted)): 6.31 µM; Affinity (IC50) to 5-HT2 receptors ([7]; 3H-spiroperidol […]): inactive; Kb [10]: 0.000631 µM; IC50 ([11]; rat, sciatic nerve, 8 min): > 15000 µM
CN1[C@@H]2CC[C@H]1C[C@@H](OC(=O)c1c[nH]c3ccccc13)C2 [R, 3-endo-tropanyl indol-3-yl carboxylate, reference compound] | 70% | 30% | 3 | 7 | inactive | 0.65 mg/kg | 4 mg/kg | 2.5 (2.1-2.9) mM | 3.3 (3.0-3.7) mM | 5.7 (5.2-6.2) mM | inactive | 1,000 | 15.8 µM | ED50 [12]: 0.006 mg/kg; Kb [5]: 3.16 µM; antihistaminic activity (in words) [5]: practically free of anticholinergic and antihistaminic activity; IC50 ([7]; 3H-spiroperidol 0.25 nM): 25 µM; anticholinergic activity (in words) [9]: practically free of anticholinergic and antihistaminic activity; local anaesthetic activity (in words) [11]: good activity; also recorded: comparable with that of lidocaine; IC50 ([11]; rat sciatic nerve in vitro, 8 minutes contact): 1300 µM
